Assay results published in article PMC8851638 (ACS Omega, 2022).
≈ marks a conversion by molar mass, not a printed value. Where “and” joins values, the source holds several entries; their conditions need not be identical. Identical values can stand only once.

Legend:
[1] = tested on: clinical pathogenic isolates; assay: Single-step resistance selection, whole panel; assay type: cell-based; conditions: 4 × MIC
[2] = In vitro cytotoxicity on normal cell line; assay type: cell-based, mouse; conditions: mouse, BNL normal liver cells
[3] = tested on: BNL: mouse normal liver cells; assay: In vitro cytotoxicity on normal cell line; assay type: cell-based
[4] = tested on: Vero: green monkey kidney; assay: In vitro cytotoxicity on normal cell line; assay type: cell-based
[5] = In vitro cytotoxicity on normal cell line; assay type: cell-based, green monkey; conditions: green monkey, Vero kidney cells
C. albicans200 [6] = assay: Checkerboard combination assay with Ketoconazole; assay type: cell-based, Candida albicans
S. epidermidis = assay: Single-step resistance selection; assay type: cell-based, Staphylococcus epidermidis; conditions: 4 × MIC, 48 h
C. albicans100 [7] = assay: Single-step resistance selection; assay type: cell-based, Candida albicans; conditions: 4 × MIC, 48 h
A. baumannii (MDR00521) = assay: MIC and MBC by broth microdilution; assay type: cell-based; conditions: ratio in parentheses
S. aureus biofilm = assay: Staphylococcus biofilm mass reduction; assay type: cell-based; conditions: at their MIC
[8] = tested on: C. albicans200 (MDR00200); assay: MIC and MFC by broth microdilution; assay type: cell-based, Candida albicans
[9] = tested on: C. albicans100 (MDR00100); assay: MIC and MFC by broth microdilution; assay type: cell-based, Candida albicans
S. aureus = assay: Single-step resistance selection; assay type: cell-based, Staphylococcus aureus; conditions: 4 × MIC, 48 h
[10] = tested on: S. epidermidis (MDR00223); assay: Agar well-diffusion antimicrobial sensitivity assay; assay type: cell-based, Staphylococcus epidermidis; conditions: Staphylococcus epidermidis, read-out: Inhibition Zone (IZ)
E. coli DNA gyrase = E. coli DNA gyrase (Escherichia coli, UniProt P0AES4+P0AES6); assay: DNA gyrase inhibition; assay type: biochemical
[11] = tested on: C. albicans200 (MDR00200); assay: Agar well-diffusion antimicrobial sensitivity assay; assay type: cell-based, Candida albicans; conditions: Candida albicans, read-out: Inhibition Zone (IZ)
B. subtilis (MDR00423) = assay: MIC and MBC by broth microdilution; assay type: cell-based; conditions: B. subtilis; ratio in parentheses
[12] = tested on: C. albicans100 (MDR00100); assay: Agar well-diffusion antimicrobial sensitivity assay; assay type: cell-based, Candida albicans; conditions: Candida albicans, read-out: Inhibition Zone (IZ)
S. epidermidis biofilm = assay: Staphylococcus biofilm mass reduction; assay type: cell-based; conditions: at their MIC
A. baumannii [13] = assay: Checkerboard combination assay with Ciprofloxacin; assay type: cell-based
B. subtilis = assay: Single-step resistance selection; assay type: cell-based; conditions: 4 × MIC, 48 h
C. albicans200 [14] = assay: Single-step resistance selection; assay type: cell-based, Candida albicans; conditions: 4 × MIC, 48 h
E. coli (MDR00501) [15] = assay: Agar well-diffusion antimicrobial sensitivity assay; assay type: cell-based; conditions: Escherichia coli, read-out: Inhibition Zone (IZ)
S. aureus (MDR00231) [16] = assay: as above; assay type: cell-based, Staphylococcus aureus; conditions: Staphylococcus aureus, read-out: Inhibition Zone (IZ)
C. albicans100 [17] = assay: Checkerboard combination assay with Ketoconazole; assay type: cell-based, Candida albicans
RBCs = assay: Hemolytic assay; assay type: cell-based; conditions: human RBCs; compounds 1.0 mg/mL; Triton X-100 0.1% v/v; 37 °C, 35 min
E. coli (MDR00501) [18] = assay: MIC and MBC by broth microdilution; assay type: cell-based
Gram-negative bacteria = assay: MIC broth microdilution, Gram-negative panel; assay type: cell-based; conditions: Gram-negative bacteria used in this study
[19] = tested on: S. epidermidis (MDR00223); assay: MIC and MBC by broth microdilution; assay type: cell-based, Staphylococcus epidermidis
K. pneumoniae (MDR00244) = assay: MIC and MBC by broth microdilution; assay type: cell-based; conditions: ratio in parentheses
E. coli = assay: Single-step resistance selection; assay type: cell-based; conditions: 4 × MIC, 48 h
K. pneumoniae = assay: Single-step resistance selection; assay type: cell-based; conditions: 4 × MIC, 48 h
[20] = In vitro cytotoxicity on normal cell line; assay type: cell-based, rat; conditions: rat, H9C2 heart/myocardium cells
[21] = tested on: H9C2: rat heart/myocardium; assay: In vitro cytotoxicity on normal cell line; assay type: cell-based
A. baumannii [22] = assay: Single-step resistance selection; assay type: cell-based; conditions: 4 × MIC, 48 h
[23] = molecular target: T1, dihydrofolate reductase (DHFR) (Homo sapiens, UniProt P00374); assay: DHFR inhibition; assay type: biochemical
T1 sequence (P00374 1-187): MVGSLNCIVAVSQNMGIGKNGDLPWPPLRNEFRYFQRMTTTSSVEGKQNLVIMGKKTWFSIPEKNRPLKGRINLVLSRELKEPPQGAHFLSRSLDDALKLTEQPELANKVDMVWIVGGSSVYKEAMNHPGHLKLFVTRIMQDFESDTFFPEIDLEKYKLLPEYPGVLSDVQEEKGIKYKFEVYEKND

S. aureus (MDR00231) [24] = assay: MIC and MBC by broth microdilution; assay type: cell-based, Staphylococcus aureus
[25] = Candida albicans, read-out: MIC (mean ± SEM)

Sequence of E. coli DNA gyrase (P0AES4 whole entry, the tested form may be a part, one chain of several): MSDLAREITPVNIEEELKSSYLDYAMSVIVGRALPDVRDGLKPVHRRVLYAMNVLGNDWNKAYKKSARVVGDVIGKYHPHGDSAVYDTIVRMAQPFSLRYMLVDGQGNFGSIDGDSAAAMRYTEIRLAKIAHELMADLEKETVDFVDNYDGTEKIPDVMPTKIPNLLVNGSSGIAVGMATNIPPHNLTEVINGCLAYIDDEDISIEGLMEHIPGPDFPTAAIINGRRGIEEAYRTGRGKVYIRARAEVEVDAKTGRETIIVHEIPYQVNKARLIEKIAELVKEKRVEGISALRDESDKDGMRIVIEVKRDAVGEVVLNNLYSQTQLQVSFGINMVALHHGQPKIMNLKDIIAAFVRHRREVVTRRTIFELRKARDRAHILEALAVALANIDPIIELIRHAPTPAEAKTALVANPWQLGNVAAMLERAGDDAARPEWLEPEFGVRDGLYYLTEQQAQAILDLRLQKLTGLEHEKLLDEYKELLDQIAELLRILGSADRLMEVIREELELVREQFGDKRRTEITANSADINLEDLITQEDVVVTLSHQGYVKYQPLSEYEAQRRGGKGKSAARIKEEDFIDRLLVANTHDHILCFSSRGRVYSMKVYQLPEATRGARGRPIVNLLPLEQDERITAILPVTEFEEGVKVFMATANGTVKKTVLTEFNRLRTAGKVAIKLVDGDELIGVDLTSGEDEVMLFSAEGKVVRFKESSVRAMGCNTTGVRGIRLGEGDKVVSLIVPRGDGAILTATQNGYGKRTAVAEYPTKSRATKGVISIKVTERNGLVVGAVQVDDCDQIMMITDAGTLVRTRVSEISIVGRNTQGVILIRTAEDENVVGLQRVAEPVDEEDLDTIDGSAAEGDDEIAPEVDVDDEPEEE

SMILES: Cc1c(NN=C(C#N)C2=NC(=O)CS2)c(=O)n(-c2ccccc2)n1C [Compound 13, N-(1,5-Dimethyl-3-oxo-2-phenyl-2,3-dihydro-1H-pyrazol-4-yl)-4-oxo-4,5-dihydrothiazole-2-carbohydrazonoyl cyanide]
- mutation frequency, range over panel [1]: 2.71 × 10^–7 to 2.92 × 10^–9
- IC50 at 72 h [2]: 79.5 ± 1.67 µM
- Selectivity index against DHFR ([3]; IC50 of BNL / IC50 of DHFR): 29.78
- Selectivity index against DNA gyrase ([3]; IC50 of BNL / IC50 of DNA gyrase): 2.51
- Selectivity index against DHFR ([4]; IC50 of Vero / IC50 of DHFR): 28.02
- Selectivity index against DNA gyrase ([4]; IC50 of Vero / IC50 of DNA gyrase): 2.36
- IC50 at 72 h [5]: 74.8 ± 2.12 µM
- combination effect (C. albicans200 [6]): S (S: synergism)
- fractional inhibitory concentration index (FICI) (C. albicans200 [6]): 0.5
- Single-step resistance frequency (mutation frequency) (S. epidermidis): 4.15 × 10^–8
- Single-step resistance frequency (mutation frequency) (C. albicans100 [7]): 2.92 × 10^–9
- MBC/MIC (A. baumannii (MDR00521)): 0.5
- reduction of biofilm formation (S. aureus biofilm): 51.2%
- MFC/MIC ([8]; C. albicans200, ratio in parentheses): 2
- MIC [8, 25]: 0.98 ± 0.3 µg/mL (≈ 2.77 µM)
- MFC/MIC ([9]; C. albicans100, ratio in parentheses): 2
- MIC [9, 25]: 0.99 ± 0.2 µg/mL (≈ 2.79 µM)
- Single-step resistance frequency (mutation frequency) (S. aureus): 2.73 × 10^–8
- zone of inhibition at 100000 µg/mL [10]: 25 ± 0.45 mm
- IC50 (E. coli DNA gyrase): 31.64 ± 0.17 µM
- zone of inhibition at 100000 µg/mL [11]: 28 ± 0.36 mm
- MBC/MIC (B. subtilis (MDR00423)): 2
- zone of inhibition at 100000 µg/mL [12]: 29 ± 0.25 mm
- reduction of biofilm formation (S. epidermidis biofilm): 47.8%
- combination effect (A. baumannii [13]): S (S: synergism)
- fractional inhibitory concentration index (FICI) (A. baumannii [13]): 0.5
- Single-step resistance frequency (mutation frequency) (B. subtilis): 1.66 × 10^–9
- Single-step resistance frequency (mutation frequency) (C. albicans200 [14]): 3.20 × 10^–8
- zone of inhibition at 100000 µg/mL (E. coli (MDR00501) [15]): 28 ± 0.55 mm
- zone of inhibition at 100000 µg/mL (S. aureus (MDR00231) [16]): 27 ± 0.82 mm
- combination effect (C. albicans100 [17]): S (S: synergism)
- fractional inhibitory concentration index (FICI) (C. albicans100 [17]): 0.5
- %lysis of RBCs (RBCs): 15.22% and 15.22 ± 0.43%
- MBC/MIC (E. coli (MDR00501) [18]; E. coli, ratio in parentheses): 0.5
- MIC (E. coli (MDR00501) [18]; Escherichia coli, read-out: MIC (mean ± SEM)): 0.49 ± 0.2 µg/mL (≈ 1.38 µM)
- MIC, range over panel (Gram-negative bacteria): 0.43 to 0.98 µg/mL
- MBC/MIC ([19]; S. epidermidis, ratio in parentheses): 1
- MIC ([19]; Staphylococcus epidermidis, read-out: MIC (mean ± SEM)): 0.99 ± 0.3 µg/mL (≈ 2.79 µM)
- MBC/MIC (K. pneumoniae (MDR00244)): 2
- Single-step resistance frequency (mutation frequency) (E. coli): 2.90 × 10^–8
- Single-step resistance frequency (mutation frequency) (K. pneumoniae): 3.22 × 10^–8
- IC50 at 72 h [20]: 61.6 ± 1.64 µM
- Selectivity index against DHFR ([21]; IC50 of H9C2 / IC50 of DHFR): 23.06
- Selectivity index against DNA gyrase ([21]; IC50 of H9C2 / IC50 of DNA gyrase): 1.94
- Single-step resistance frequency (mutation frequency) (A. baumannii [22]): 2.71 × 10^–7
- IC50 [23]: 2.67 ± 0.14 µM
- MBC/MIC (S. aureus (MDR00231) [24]; S. aureus, ratio in parentheses): 1
- MIC (S. aureus (MDR00231) [24]; Staphylococcus aureus, read-out: MIC (mean ± SEM)): 0.98 ± 0.2 µg/mL (≈ 2.77 µM)
